# Experimental data from ChEMBL document CHEMBL5316313, “Discovery of Novel 3-Phenylpiperidine Derivatives Targeting the β-Catenin/B-Cell Lymphoma 9 Interaction as a Single Agent and in Combination with the Anti-PD-1 Antibody for the Treatment of Colorectal Cancer” (J Med Chem, 2023).
# Active and inactive are the calls of the source. The rule behind the calls is not given here.
# Legend:
# [1] = Microsomal stability in human liver microsomes assessed as intrinsic clearance at […] and measured upto 60 mins by LC-MS/MS analysis; assay type: ADME, Microsome; conditions: read-out: CLH
# [2] = system: HEK293; test: Induction of apoptosis in Wnt-independent human HEK293 cells assessed as necrotic cells at 10 uM incubated for 24 hrs by Annexin V-Alexa Fluor 647/PI staining based flow cytomtery (Rvb=1.82%); assay type: functional
# [3] = system: CT26; test: Induction of apoptosis in Wnt-dependent mouse CT26 cells assessed as early apoptotic cells at 10 uM incubated for 24 hrs by Annexin V-Alexa Fluor 647/PI staining based flow cytomtery (Rvb=18.3%); assay type: functional
# [4] = system: CT26; test: Induction of apoptosis in Wnt-dependent mouse CT26 cells assessed as viable cells at 20 uM incubated for 24 hrs by Annexin V-Alexa Fluor 647/PI staining based flow cytomtery (Rvb=70.7%); assay type: functional; conditions: read-out: Activity
# [5] = system: HCT-116; test: Antiproliferative activity against Wnt-dependent human HCT-116 cells assessed as cell growth inhibition incubated for 48 hrs by CellTiter-Glo assay; assay type: functional, cell-based
# [6] = biological target: T1, Beta catenin-BCL9 (Mus musculus, UniProt Q02248+Q9D219); test: Inhibition of beta-catenin/BCL9 protein-protein interaction in Wnt-dependent BCL9 knockdown mouse CT26 cells assessed as reduction in Axin2 expression level by qRT-PCR assay; assay type: cell-based
# T1 sequence (Q02248 whole entry): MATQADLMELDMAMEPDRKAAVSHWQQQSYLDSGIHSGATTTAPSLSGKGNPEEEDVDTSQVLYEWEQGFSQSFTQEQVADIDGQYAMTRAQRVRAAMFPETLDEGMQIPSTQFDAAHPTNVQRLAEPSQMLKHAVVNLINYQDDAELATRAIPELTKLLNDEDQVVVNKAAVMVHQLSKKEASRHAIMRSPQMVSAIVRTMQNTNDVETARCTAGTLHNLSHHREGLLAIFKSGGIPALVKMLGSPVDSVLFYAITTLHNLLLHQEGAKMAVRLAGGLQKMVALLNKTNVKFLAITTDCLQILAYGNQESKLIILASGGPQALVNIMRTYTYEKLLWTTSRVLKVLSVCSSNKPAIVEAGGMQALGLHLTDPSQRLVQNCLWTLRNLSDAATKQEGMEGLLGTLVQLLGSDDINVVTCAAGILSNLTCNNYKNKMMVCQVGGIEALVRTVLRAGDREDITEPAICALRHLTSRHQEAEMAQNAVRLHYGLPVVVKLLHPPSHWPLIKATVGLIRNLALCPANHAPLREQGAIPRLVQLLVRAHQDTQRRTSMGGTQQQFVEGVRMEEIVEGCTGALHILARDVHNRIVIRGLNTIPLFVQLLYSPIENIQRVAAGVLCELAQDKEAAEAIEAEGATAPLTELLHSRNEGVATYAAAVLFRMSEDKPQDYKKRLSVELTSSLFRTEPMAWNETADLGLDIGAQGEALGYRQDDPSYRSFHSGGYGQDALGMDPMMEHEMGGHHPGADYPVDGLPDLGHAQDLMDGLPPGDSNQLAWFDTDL
# T1 sequence (Q9D219 whole entry): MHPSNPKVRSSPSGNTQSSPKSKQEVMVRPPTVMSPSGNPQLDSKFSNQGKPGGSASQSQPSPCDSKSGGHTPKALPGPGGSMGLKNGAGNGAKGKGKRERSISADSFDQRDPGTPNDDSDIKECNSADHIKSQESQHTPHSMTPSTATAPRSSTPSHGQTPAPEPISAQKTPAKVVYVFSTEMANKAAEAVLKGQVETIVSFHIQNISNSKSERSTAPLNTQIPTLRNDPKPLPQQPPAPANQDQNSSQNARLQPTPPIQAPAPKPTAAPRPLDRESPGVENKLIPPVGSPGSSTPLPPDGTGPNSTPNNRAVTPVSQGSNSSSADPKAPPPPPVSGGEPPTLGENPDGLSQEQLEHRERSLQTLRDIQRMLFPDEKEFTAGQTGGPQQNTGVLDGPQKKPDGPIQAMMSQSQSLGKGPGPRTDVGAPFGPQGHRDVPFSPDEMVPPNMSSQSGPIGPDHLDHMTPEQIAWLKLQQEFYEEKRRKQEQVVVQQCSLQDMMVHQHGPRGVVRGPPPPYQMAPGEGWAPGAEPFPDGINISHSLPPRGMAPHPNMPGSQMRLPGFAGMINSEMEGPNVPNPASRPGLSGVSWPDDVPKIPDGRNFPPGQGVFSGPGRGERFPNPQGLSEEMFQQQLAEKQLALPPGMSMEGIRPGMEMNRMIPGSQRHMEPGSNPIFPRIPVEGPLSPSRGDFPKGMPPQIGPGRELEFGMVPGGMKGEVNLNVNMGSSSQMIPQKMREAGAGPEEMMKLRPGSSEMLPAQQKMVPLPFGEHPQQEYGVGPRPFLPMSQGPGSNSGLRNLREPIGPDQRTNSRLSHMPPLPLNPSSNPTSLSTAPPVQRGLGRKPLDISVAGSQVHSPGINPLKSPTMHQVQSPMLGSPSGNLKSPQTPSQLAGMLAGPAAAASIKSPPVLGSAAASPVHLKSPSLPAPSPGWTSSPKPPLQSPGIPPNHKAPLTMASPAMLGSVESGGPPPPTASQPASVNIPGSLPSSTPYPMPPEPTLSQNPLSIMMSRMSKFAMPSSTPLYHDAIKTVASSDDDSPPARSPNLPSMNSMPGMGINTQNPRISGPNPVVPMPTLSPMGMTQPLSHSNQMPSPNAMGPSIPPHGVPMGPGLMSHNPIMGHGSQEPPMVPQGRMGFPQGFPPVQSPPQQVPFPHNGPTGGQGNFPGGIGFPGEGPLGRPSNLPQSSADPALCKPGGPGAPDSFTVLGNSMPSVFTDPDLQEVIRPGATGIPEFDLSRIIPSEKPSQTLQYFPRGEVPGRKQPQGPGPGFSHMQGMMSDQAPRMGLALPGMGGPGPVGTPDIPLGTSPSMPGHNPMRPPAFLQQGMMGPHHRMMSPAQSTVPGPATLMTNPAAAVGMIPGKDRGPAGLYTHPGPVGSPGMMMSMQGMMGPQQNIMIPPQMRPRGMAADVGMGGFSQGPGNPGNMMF
# [7] = Toxicity in BALB/c mouse xenografted with mouse CT26 cells assessed as pathological changes in spleen at 30 mg/kg, ip QD by hematoxylin and eosin staining based microscopic analysis; assay type: organism-based; conditions: in vivo
# [8] = Toxicity in BALB/c mouse xenografted with mouse CT26 cells assessed as pathological changes in lung at 30 mg/kg, ip QD in presence of anti-PD-1 antibody cotreatment at 10 mg/kg,ip BIW by hematoxylin and eosin staining based microscopic analysis; assay type: organism-based; conditions: in vivo
# [9] = system: CT26; test: Antitumor activity in mouse CT26 cells xenografted in BALB/c mouse assessed as increase in IFNgamma-positive CD8+ T cell infiltration into tumor at 30 mg/kg, ip QD by flow cytometry; assay type: functional, organism-based
# [10] = system: CT26; conditions: Mus musculus, BALB/c, dose 30.0 mg/kg, route ip
# Description: In vivo inhibition of Wnt signaling pathway in mouse CT26 cells implanted in BALB/c mouse assessed as reduction in Lgr5 mRNA expression level in tumor at 30 mg/kg, ip QD by qRT-PCR analysis
smiles,measurement,setting,value
CC(C)c1ccc(-c2cccc(S(=O)(=O)N3CCCC(c4cccc(OC(C)(C)C(=O)NS(=O)(=O)c5ccc(C(F)(F)F)cc5)c4)C3)c2)cc1 (stereo not given),microsomal CLint,[1],43.2 µL/min/mg
same,Activity,[2],2.28%
same,Activity,[3],24%
same,viability at 20 µM,[4],16%
same,Activity,[5],Active
same,IC50,[6],51.6 µM
same,Activity,[7],Non-Toxic
same,Activity,[8],Non-Toxic
same,Activity,[9],Active
same,inhibition,[10],Active
